Measured values as given in patent US20080199503A1, “Pharmaceutical Compositions Preparation of Peptides, Secreted by the Snake Venom Glands, Particularly of Bothrops Jararaca, Vasopeptidases Inhibitors, Evasins, Their Analogues, Derivatives and Products Associated, Thereof, for Development of Applications and Use in Chronic-Degenerative Diseases” (priority 2002, published 2008).
Square brackets hold non-standard residues; d marks the D form. Ends that are not written are not given here. Peptide text beside a SMILES is read from it. pGlu = O=C1CC[C@@H](C(=O)O)N1

T1: recombinant Angiotensin I converting enzyme, N-terminal catalytic site
T1 chain: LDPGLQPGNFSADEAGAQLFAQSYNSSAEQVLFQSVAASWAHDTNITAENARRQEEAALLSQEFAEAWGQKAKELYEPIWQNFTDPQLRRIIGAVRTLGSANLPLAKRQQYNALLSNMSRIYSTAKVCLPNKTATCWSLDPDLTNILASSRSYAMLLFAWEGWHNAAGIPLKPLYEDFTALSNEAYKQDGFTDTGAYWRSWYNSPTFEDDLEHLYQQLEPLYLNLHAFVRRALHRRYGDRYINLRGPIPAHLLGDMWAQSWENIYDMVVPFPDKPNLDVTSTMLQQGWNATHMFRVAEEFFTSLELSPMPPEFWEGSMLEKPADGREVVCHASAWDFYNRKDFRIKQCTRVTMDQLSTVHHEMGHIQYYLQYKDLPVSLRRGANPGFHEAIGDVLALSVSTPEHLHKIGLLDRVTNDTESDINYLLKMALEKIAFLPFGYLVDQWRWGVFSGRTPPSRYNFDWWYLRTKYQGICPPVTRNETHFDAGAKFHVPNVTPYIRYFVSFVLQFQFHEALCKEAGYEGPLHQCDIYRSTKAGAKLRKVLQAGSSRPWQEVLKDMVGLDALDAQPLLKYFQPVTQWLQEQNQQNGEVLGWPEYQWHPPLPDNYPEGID

T2: recombinant Angiotensin I converting enzyme, C-terminal catalytic site
T2 chain: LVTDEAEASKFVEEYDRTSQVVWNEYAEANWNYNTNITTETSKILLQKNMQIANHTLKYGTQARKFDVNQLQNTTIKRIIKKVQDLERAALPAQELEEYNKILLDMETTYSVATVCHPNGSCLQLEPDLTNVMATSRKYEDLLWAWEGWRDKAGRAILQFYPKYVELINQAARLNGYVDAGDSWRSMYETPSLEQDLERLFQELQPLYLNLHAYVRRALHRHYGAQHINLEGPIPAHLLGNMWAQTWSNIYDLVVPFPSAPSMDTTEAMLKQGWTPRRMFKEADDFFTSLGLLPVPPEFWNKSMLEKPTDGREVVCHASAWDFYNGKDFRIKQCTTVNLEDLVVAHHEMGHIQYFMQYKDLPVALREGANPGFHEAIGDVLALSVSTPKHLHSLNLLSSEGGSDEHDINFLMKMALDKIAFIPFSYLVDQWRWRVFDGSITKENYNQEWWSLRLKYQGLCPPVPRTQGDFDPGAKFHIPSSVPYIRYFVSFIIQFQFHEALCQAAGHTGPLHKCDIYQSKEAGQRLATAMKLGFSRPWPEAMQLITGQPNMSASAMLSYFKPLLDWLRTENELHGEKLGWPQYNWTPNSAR


How the values were obtained:
[1] = target: C-terminal catalytic site of the Angiotensin I converting enzyme (recombinant ACE) (Homo sapiens, UniProt P12821); assay: Inhibition of the C-terminal catalytic site of recombinant ACE (fluorogenic substrate); assay type: biochemical
Experimental: (§1) The fractions from purification were submitted to mass spectrometry analysis to conforming the Evasins molar mass after purification. • The enzyme assays for the recombinant ACE inhibition were conducted using the substrate Mca-Ala-Ser-Asp-Lys-DpaOH, at 25° C., in a 50 mM Hepes buffer (pH 6.8), 200 mM NaCl and […] ZnCl2.

[2] = target: N-terminal catalytic site of the Angiotensin I converting enzyme (recombinant ACE) (Homo sapiens, UniProt P12821); assay: Inhibition of the N-terminal catalytic site of recombinant ACE (fluorogenic substrate); assay type: biochemical
Experimental: as §1

[3] = system: anesthetized normotensive rats (WKY) blood pressure; assay: Potentiation of the bradykinin hypotensive effect on anesthetized rat blood pressure; assay type: in vivo; conditions: for Bk potentiation(%): hypotension increase of a single bradykinin dose after 200 nmol of potentiator i.v., anesthetized rats; for Duration time: time to reduce the potentiating effect by 50%, 200 nmol/rat i.v., unit not given, minutes
Experimental: The potentiating activity of the bradykinin hypotensive effect was tested in anesthetized rats. Normotensive male rats (WKY) were anesthetized using pentobarbital sodium (Hypnol® Cristália, 50 mg/kg, intraperitoneal) and placed on a controlled-temperature board for maintaining the body temperature between 36.5° C. and 37° C. A polygraph coupled to a physiological transducer was used. The blood pressure ranging values were obtained by integrating the areas limited by the baseline pressure and comparing them to the values obtained from control assays. In in vivo assays, the potentiating activity of Evasins on the hypotensive effect of bradykinin on anesthetized rat blood pressure was observed. Two parameters were determined for comparison of the potentiating effects of bradykinin on the anesthetized rat blood pressure (n=5):
1) Intensity of the potentiating effect of the hypotensive activity of bradykinin on the anesthetized rats blood pressure: This value was defined as the hypotension percentage (%) increase caused by a single dose of bradykinin obtained after the infusion of 200 nmol of potentiator. 2) Potentiating effect length: Time required to reduce the potentiating effect on a single dose of bradykinin by 50%.

[4] = target: neutral endopeptidase (recombinant NEP) (Homo sapiens, UniProt P08473); assay: Fluorometric assay of recombinant NEP inhibition; assay type: biochemical
Chain of neutral endopeptidase (recombinant NEP) (P08473 whole entry, species assumed): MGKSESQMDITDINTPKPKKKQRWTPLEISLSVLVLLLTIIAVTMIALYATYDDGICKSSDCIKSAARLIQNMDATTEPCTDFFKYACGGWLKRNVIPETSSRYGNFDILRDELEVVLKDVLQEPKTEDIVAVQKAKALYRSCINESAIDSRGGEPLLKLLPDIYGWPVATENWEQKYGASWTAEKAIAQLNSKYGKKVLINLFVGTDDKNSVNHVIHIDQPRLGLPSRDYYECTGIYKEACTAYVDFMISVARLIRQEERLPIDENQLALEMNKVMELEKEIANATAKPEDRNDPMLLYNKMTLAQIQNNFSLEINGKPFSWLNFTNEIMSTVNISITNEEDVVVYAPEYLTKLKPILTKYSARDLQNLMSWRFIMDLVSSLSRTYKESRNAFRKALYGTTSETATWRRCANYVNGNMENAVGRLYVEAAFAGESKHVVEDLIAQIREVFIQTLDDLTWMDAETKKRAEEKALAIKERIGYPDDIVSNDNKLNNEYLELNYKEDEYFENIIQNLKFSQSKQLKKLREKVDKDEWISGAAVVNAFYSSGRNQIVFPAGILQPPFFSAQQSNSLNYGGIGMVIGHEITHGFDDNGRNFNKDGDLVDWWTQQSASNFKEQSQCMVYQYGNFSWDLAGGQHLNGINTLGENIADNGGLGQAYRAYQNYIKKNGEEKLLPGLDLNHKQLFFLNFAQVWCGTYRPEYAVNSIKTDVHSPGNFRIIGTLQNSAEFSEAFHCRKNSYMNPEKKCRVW
Experimental: The fluorometric assays for the recombinant NEP inhibition were conducted using the substrate Abz-RL-EDDnp in a 50 mM Tris-HCl buffer, pH 7.5, at 37° C. […] The Evasins were pre-incubated with the enzyme before the substrate addition.
The inhibition constants (Ki) values were determined by means of the ratio of the apparent inhibition constant (Ki(app)) and the substrate Km (Salvesen and Nagase, 1990). In: Proteolytic enzymes a practical aproach, Beynon and Bond Eds Oxford University Press, England, 87-88).

[5] = target: recombinant neutral endopeptidase; assay: fluorogenic substrate (Abz-RL-EDDnp) inhibition assay, recombinant NEP
[6] = target: T1, recombinant Angiotensin I converting …
[7] = target: T2, recombinant Angiotensin I converting …

| Molecule | Ki [1] [nM] | Ki [2] [nM] | Bk potentiation(%) [3] [%] | Duration time [3] | Ki [4] [nM] | Ki [5] [nM] | Ki [6] [nM] | Ki [7] [nM] |
| --- | --- | --- | --- | --- | --- | --- | --- | --- |
| CC[C@H](C)[C@H](NC(=O)[C@H](CC(N)=O)NC(=O)[C@@H]1CCCN1C(=O)CNC(=O)[C@@H]1CCCN1C(=O)[C@H](Cc1c[nH]c2ccccc12)NC(=O)[C@H](CO)NC(=O)[C@@H]1CCC(=O)N1)C(=O)N1CCC[C@H]1C(=O)N1CCC[C@H]1C(=O)O [EVASIN-10a, <ESWPGPNIPP] ([pGlu]SWPGPNIPP-OH; C-terminus assumed) | 33 | 130 |  |  |  |  |  |  |
| CC[C@H](C)[C@H](NC(=O)[C@@H]1CCCN1C(=O)[C@@H]1CCCN1C(=O)CNC(=O)[C@@H]1CCCN1C(=O)[C@H](C)NC(=O)[C@H](CCCNC(=N)N)NC(=O)CNC(=O)[C@@H]1CCC(=O)N1)C(=O)N1CCC[C@H]1C(=O)N1CCC[C@H]1C(=O)O [EVASIN-11b, <EGRAPGPPIPP] ([pGlu]GRAPGPPIPP-OH; C-terminus assumed) | 57 | 3000 | 164.3 | 90 | 476000 |  |  |  |
| CC[C@H](C)[C@H](NC(=O)[C@@H]1CCCN1C(=O)[C@@H]1CCCN1C(=O)[C@H](Cc1c[nH]cn1)NC(=O)[C@@H]1CCCN1C(=O)[C@H](C)NC(=O)[C@H](CCCNC(=N)N)NC(=O)CNC(=O)[C@@H]1CCC(=O)N1)C(=O)N1CCC[C@H]1C(=O)N1CCC[C@H]1C(=O)O [EVASIN-11c, <EGRAPHPPIPP] ([pGlu]GRAPHPPIPP-OH; C-terminus assumed) | 40 | 2000 | 67 | 28 | 589000 |  |  |  |
| CC[C@H](C)[C@H](NC(=O)[C@@H]1CCCN1C(=O)[C@@H]1CCCN1C(=O)[C@H](Cc1c[nH]cn1)NC(=O)[C@@H]1CCCN1C(=O)[C@@H]1CCCN1C(=O)[C@H](CCCNC(=N)N)NC(=O)[C@H](C)NC(=O)[C@@H]1CCC(=O)N1)C(=O)N1CCC[C@H]1C(=O)N1CCC[C@H]1C(=O)O [EVASIN-11e, EARPPHPPIPP] ([pGlu]ARPPHPPIPP-OH; C-terminus assumed) |  |  | 41 | 35 |  |  |  |  |
| CC[C@H](C)[C@H](NC(=O)[C@H](CCC(N)=O)NC(=O)[C@@H]1CCCN1C(=O)[C@H](CCCNC(=N)N)NC(=O)[C@@H]1CCCN1C(=O)[C@H](Cc1c[nH]c2ccccc12)NC(=O)[C@H](C)NC(=O)[C@H](Cc1c[nH]c2ccccc12)NC(=O)CNC(=O)[C@@H]1CCC(=O)N1)C(=O)N1CCC[C@H]1C(=O)N1CCC[C@H]1C(=O)O [EVASIN-12a, <EGWAWPRPQIPP] ([pGlu]GWAWPRPQIPP-OH; C-terminus assumed) | 25 | 25 |  |  | 106000 |  |  |  |
| CC[C@H](C)[C@H](NC(=O)[C@@H]1CCCN1C(=O)[C@@H]1CCCN1C(=O)CNC(=O)[C@@H]1CCCN1C(=O)[C@@H]1CCCN1C(=O)[C@H](CCCNC(=N)N)NC(=O)CNC(=O)[C@H](Cc1c[nH]c2ccccc12)NC(=O)[C@@H]1CCC(=O)N1)C(=O)N1CCC[C@H]1C(=O)N1CCC[C@H]1C(=O)O [EVASIN-12b, <EWGRPPGPPIPP] ([pGlu]WGRPPGPPIPP-OH; C-terminus assumed) | 150 | 5 | 340 | 40 | 150000 |  |  |  |
| CC[C@H](C)[C@H](NC(=O)[C@H](CCC(=O)O)NC(=O)[C@@H]1CCCN1C(=O)CNC(=O)[C@@H]1CCCN1C(=O)[C@H](CCCNC(=N)N)NC(=O)[C@@H]1CCCN1C(=O)[C@H](Cc1c[nH]c2ccccc12)NC(=O)CNC(=O)CNC(=O)[C@@H]1CCC(=O)N1)C(=O)N1CCC[C@H]1C(=O)N1CCC[C@H]1C(=O)O [EVASIN-13a, <EGGWPRPGPEIPP] ([pGlu]GGWPRPGPEIPP-OH; C-terminus assumed) | 50 | 50 | 45 | 30 | 473000 |  |  |  |
| EVASIN-10c (peptide) |  |  |  |  |  | 253000 |  |  |
| [pGlu]KWAP [EVASIN-5a] |  |  |  |  |  | 550000 | 399 | 1280 |
| [pGlu]DGPIPP [EVASIN-7a] |  |  |  |  |  | 492000 | 70000 | 40000 |
| EWPRPQIPP (pyroglutamic acid (<E) at position 1 (N-terminus)) [EVASIN-9a] |  |  |  |  |  | 86000 | 100 | 1 |
| [pGlu]GRAPGPPIPP [EVASIN-11b] |  |  |  |  |  | 476000 | 3000 | 57 |
| [pGlu]GRAPHPPIPP [EVASIN-11c] |  |  |  |  |  | 589000 | 2000 | 40 |
| [pGlu]GWAWPRPQIPP [EVASIN-12a] |  |  |  |  |  | 106000 | 25 | 25 |
| [pGlu]WGRPPGPPIPP [EVASIN-12b] |  |  |  |  |  | 150000 | 5 | 150 |
| [pGlu]GGWPRPGPEIPP [EVASIN-13a] |  |  |  |  |  | 473000 | 50 | 50 |
| [pGlu]SWPGPNIPP [EVASIN-10a] |  |  |  |  |  |  | 130 | 33 |
